# System: SUM149PT spheroids with HUVEC/MSC, viability
# Assay: Anticancer human tumor SUM149PT cell line growth inhibition [GQUAD];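 also: spheroids exposed to drugs for seven days before readout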;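 as to viability, T/C: percent viability relative to DMSO vehicle control taken as 100%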
# Settings: for IC50: curve of first compound; for viability, T/C: stronger effect = lower value
# Outline: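 Viability of tumor cells grown as complex spheroids with endothelial and stromal cells, exposed to drug combinations. Top concentration at or near clinical Cmax (else 10 microM), diluted in half-log increments.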
# [1] = second compound 0.0316 µM, first compound 0.0316 µM
# [2] = second compound 0.0316 µM, first compound 0.1 µM
# [3] = second compound 0.0316 µM, first compound 0.316 µM
# [4] = second compound 0.0316 µM, first compound 1 µM
# [5] = second compound 0.0316 µM, first compound 3.16 µM
# [6] = second compound 0.0316 µM, first compound 10 µM
# [7] = second compound 0.1 µM, first compound 0.0316 µM
# [8] = second compound 0.1 µM, first compound 0.1 µM
# [9] = second compound 0.1 µM, first compound 0.316 µM
# [10] = second compound 0.1 µM, first compound 1 µM
# [11] = second compound 0.1 µM, first compound 3.16 µM
# [12] = second compound 0.1 µM, first compound 10 µM
# [13] = second compound 0.316 µM, first compound 0.0316 µM
# [14] = second compound 0.316 µM, first compound 0.1 µM
# [15] = second compound 0.316 µM, first compound 0.316 µM
# [16] = second compound 0.316 µM, first compound 1 µM
# [17] = second compound 0.316 µM, first compound 3.16 µM
# [18] = second compound 0.316 µM, first compound 10 µM
# [19] = second compound 1 µM, first compound 0.0316 µM
# [20] = second compound 1 µM, first compound 0.1 µM
# [21] = second compound 1 µM, first compound 0.316 µM
# [22] = second compound 1 µM, first compound 1 µM
# [23] = second compound 1 µM, first compound 3.16 µM
# [24] = second compound 1 µM, first compound 10 µM
# [25] = second compound 3.16 µM, first compound 0.0316 µM
# [26] = second compound 3.16 µM, first compound 0.1 µM
# [27] = second compound 3.16 µM, first compound 0.316 µM
# [28] = second compound 3.16 µM, first compound 1 µM
# [29] = second compound 3.16 µM, first compound 3.16 µM
# [30] = second compound 3.16 µM, first compound 10 µM
# [31] = second compound 10 µM, first compound 0.0316 µM
# [32] = second compound 10 µM, first compound 0.1 µM
# [33] = second compound 10 µM, first compound 0.316 µM
# [34] = second compound 10 µM, first compound 1 µM
# [35] = second compound 10 µM, first compound 3.16 µM
# [36] = second compound 10 µM, first compound 10 µM
smiles,measurement,setting,value
CC(=O)O[C@H]1C(=O)[C@@]2(C)[C@H]([C@H](OC(=O)c3ccccc3)[C@]3(O)C[C@H](OC(=O)[C@H](O)[C@@H](NC(=O)c4ccccc4)c4ccccc4)C(C)=C1C3(C)C)[C@]1(OC(C)=O)CO[C@@H]1C[C@@H]2O + Cc1[nH]c2ccc(F)cc2c1-c1nc2c3cccnc3c3ncccc3c2[nH]1,IC50,second compound 0.0316 µM,< 0.0316 µM
same,IC50,second compound 0.1 µM,< 0.0316 µM
same,IC50,second compound 0.316 µM,< 0.0316 µM
same,IC50,second compound 1 µM,< 0.0316 µM
same,IC50,second compound 3.16 µM,< 0.0316 µM
same,IC50,second compound 10 µM,< 0.0316 µM
same,"viability, T/C",[1],31.7%
same,"viability, T/C",[2],25.7%
same,"viability, T/C",[3],21.3%
same,"viability, T/C",[4],19.2%
same,"viability, T/C",[5],19%
same,"viability, T/C",[6],23.1%
same,"viability, T/C",[7],34.9%
same,"viability, T/C",[8],24.9%
same,"viability, T/C",[9],22.7%
same,"viability, T/C",[10],19.7%
same,"viability, T/C",[11],19.3%
same,"viability, T/C",[12],25.8%
same,"viability, T/C",[13],32.2%
same,"viability, T/C",[14],25.7%
same,"viability, T/C",[15],24.2%
same,"viability, T/C",[16],18.9%
same,"viability, T/C",[17],20.8%
same,"viability, T/C",[18],26.5%
same,"viability, T/C",[19],30.2%
same,"viability, T/C",[20],27.2%
same,"viability, T/C",[21],23.1%
same,"viability, T/C",[22],17.3%
same,"viability, T/C",[23],21.5%
same,"viability, T/C",[24],26.6%
same,"viability, T/C",[25],29.8%
same,"viability, T/C",[26],28.6%
same,"viability, T/C",[27],21.5%
same,"viability, T/C",[28],18%
same,"viability, T/C",[29],20.5%
same,"viability, T/C",[30],22.9%
same,"viability, T/C",[31],28.5%
same,"viability, T/C",[32],24.9%
same,"viability, T/C",[33],20.2%
same,"viability, T/C",[34],20.7%
same,"viability, T/C",[35],22.3%
same,"viability, T/C",[36],23.1%
CCc1c2c(nc3ccc(O)cc13)-c1cc3c(c(=O)n1C2)COC(=O)[C@]3(O)CC + Cc1[nH]c2ccc(F)cc2c1-c1nc2c3cccnc3c3ncccc3c2[nH]1,IC50,second compound 0.0316 µM,0.00234 µM
same,IC50,second compound 0.1 µM,0.00258 µM
same,IC50,second compound 0.316 µM,0.00188 µM
same,IC50,second compound 1 µM,0.0023 µM
same,IC50,second compound 3.16 µM,0.00154 µM
same,IC50,second compound 10 µM,< 0.000999 µM
same,"viability, T/C","second compound 0.0316 µM, first compound 0.000999 µM",67.2%
same,"viability, T/C","second compound 0.0316 µM, first compound 0.00316 µM",34.9%
same,"viability, T/C","second compound 0.0316 µM, first compound 0.00999 µM",43.4%
same,"viability, T/C",[1],34.7%
same,"viability, T/C","second compound 0.0316 µM, first compound 0.0999 µM",32.4%
same,"viability, T/C",[3],18.2%
same,"viability, T/C","second compound 0.1 µM, first compound 0.000999 µM",69.1%
same,"viability, T/C","second compound 0.1 µM, first compound 0.00316 µM",32.6%
same,"viability, T/C","second compound 0.1 µM, first compound 0.00999 µM",45.4%
same,"viability, T/C",[7],34.2%
same,"viability, T/C","second compound 0.1 µM, first compound 0.0999 µM",27.8%
same,"viability, T/C",[9],16.8%
same,"viability, T/C","second compound 0.316 µM, first compound 0.000999 µM",61.4%
same,"viability, T/C","second compound 0.316 µM, first compound 0.00316 µM",33.3%
same,"viability, T/C","second compound 0.316 µM, first compound 0.00999 µM",37.8%
same,"viability, T/C",[13],38.2%
same,"viability, T/C","second compound 0.316 µM, first compound 0.0999 µM",27.2%
same,"viability, T/C",[15],15.7%
same,"viability, T/C","second compound 1 µM, first compound 0.000999 µM",65.9%
same,"viability, T/C","second compound 1 µM, first compound 0.00316 µM",35.5%
same,"viability, T/C","second compound 1 µM, first compound 0.00999 µM",38.1%
same,"viability, T/C",[19],40.8%
same,"viability, T/C","second compound 1 µM, first compound 0.0999 µM",25.5%
same,"viability, T/C",[21],18.4%
same,"viability, T/C","second compound 3.16 µM, first compound 0.000999 µM",59.7%
same,"viability, T/C","second compound 3.16 µM, first compound 0.00316 µM",34.1%
same,"viability, T/C","second compound 3.16 µM, first compound 0.00999 µM",38.7%
same,"viability, T/C",[25],39.7%
same,"viability, T/C","second compound 3.16 µM, first compound 0.0999 µM",27.6%
same,"viability, T/C",[27],15.7%
same,"viability, T/C","second compound 10 µM, first compound 0.000999 µM",56.5%
same,"viability, T/C","second compound 10 µM, first compound 0.00316 µM",31.1%
same,"viability, T/C","second compound 10 µM, first compound 0.00999 µM",36.3%
same,"viability, T/C",[31],39%
same,"viability, T/C","second compound 10 µM, first compound 0.0999 µM",25.3%
same,"viability, T/C",[33],15.8%
CC1COCCN1c1cc(C2(S(C)(=N)=O)CC2)nc(-c2ccnc3[nH]ccc23)n1 (stereo not drawn) + Cc1[nH]c2ccc(F)cc2c1-c1nc2c3cccnc3c3ncccc3c2[nH]1,IC50,second compound 0.0316 µM,2.38 µM
same,IC50,second compound 0.1 µM,2.65 µM
same,IC50,second compound 0.316 µM,2.83 µM
same,IC50,second compound 1 µM,2.63 µM
same,IC50,second compound 3.16 µM,2.45 µM
same,IC50,second compound 10 µM,2.17 µM
same,"viability, T/C",[1],95.9%
same,"viability, T/C",[2],93.6%
same,"viability, T/C",[3],99.7%
same,"viability, T/C",[4],79.5%
same,"viability, T/C",[5],40.5%
same,"viability, T/C",[6],17.3%
same,"viability, T/C",[7],112%
same,"viability, T/C",[8],99.5%
same,"viability, T/C",[9],86.7%
same,"viability, T/C",[10],89.2%
same,"viability, T/C",[11],41.9%
same,"viability, T/C",[12],22.6%
same,"viability, T/C",[13],103%
same,"viability, T/C",[14],105%
same,"viability, T/C",[15],89.8%
same,"viability, T/C",[16],83.6%
same,"viability, T/C",[17],45%
same,"viability, T/C",[18],20.6%
same,"viability, T/C",[19],91.9%
same,"viability, T/C",[20],100%
same,"viability, T/C",[21],97.1%
same,"viability, T/C",[22],83.9%
same,"viability, T/C",[23],43.5%
same,"viability, T/C",[24],19.6%
same,"viability, T/C",[25],86.5%
same,"viability, T/C",[26],84.9%
same,"viability, T/C",[27],89.7%
same,"viability, T/C",[28],75.4%
same,"viability, T/C",[29],42.8%
same,"viability, T/C",[30],19%
same,"viability, T/C",[31],103%
same,"viability, T/C",[32],96.5%
same,"viability, T/C",[33],94.3%
same,"viability, T/C",[34],79.5%
same,"viability, T/C",[35],35.6%
same,"viability, T/C",[36],18.3%
CC1COCCN1c1cc(-c2ccnn2C)c2ccnc(-c3ccn[nH]3)c2n1 (stereo not drawn) + Cc1cnc(CNC(=O)c2c(=O)c3ccc(N4CCCN(C)CC4)nc3n3c2sc2ccccc23)cn1,IC50,second compound 0.0316 µM,< 0.0316 µM
same,IC50,second compound 0.1 µM,< 0.0316 µM
same,IC50,second compound 0.316 µM,< 0.0316 µM
same,IC50,second compound 1 µM,< 0.0316 µM
same,IC50,second compound 3.16 µM,< 0.0316 µM
same,IC50,second compound 10 µM,< 0.0316 µM
same,"viability, T/C",[1],14.7%
same,"viability, T/C",[2],12.5%
same,"viability, T/C",[3],18.1%
same,"viability, T/C",[4],18.2%
same,"viability, T/C",[5],20.6%
same,"viability, T/C",[6],19.2%
same,"viability, T/C",[7],17.1%
same,"viability, T/C",[8],19.6%
same,"viability, T/C",[9],18.7%
same,"viability, T/C",[10],20.3%
same,"viability, T/C",[11],20.3%
same,"viability, T/C",[12],20.4%
same,"viability, T/C",[13],21.1%
same,"viability, T/C",[14],20.5%
same,"viability, T/C",[15],24.3%
same,"viability, T/C",[16],20.3%
same,"viability, T/C",[17],21.9%
same,"viability, T/C",[18],18.4%
same,"viability, T/C",[19],21.4%
same,"viability, T/C",[20],23.1%
same,"viability, T/C",[21],26.4%
same,"viability, T/C",[22],21.5%
same,"viability, T/C",[23],20.7%
same,"viability, T/C",[24],17.5%
same,"viability, T/C",[25],25.9%
same,"viability, T/C",[26],23.6%
same,"viability, T/C",[27],24.2%
same,"viability, T/C",[28],20.8%
same,"viability, T/C",[29],18.8%
same,"viability, T/C",[30],15.9%
same,"viability, T/C",[31],0.11%
same,"viability, T/C",[32],0.15%
same,"viability, T/C",[33],0.93%
same,"viability, T/C",[34],1.21%
same,"viability, T/C",[35],1.74%
same,"viability, T/C",[36],0.18%

# From PubChem BioAssay AID2060484 (Molecular Pharmacology Branch, DTP, NCI, 2025)
